Measurements taken from the Kinase Knowledgebase extract (Sharma et al. 2016).
pIC50: −log10 of the molar value.

Biological target: PIK3CD (Human) (UniProt O00329)
Test: Inhibition of PIK3CD Kinase Activity

Sequence of PIK3CD (Human) (O00329 whole entry, looked up): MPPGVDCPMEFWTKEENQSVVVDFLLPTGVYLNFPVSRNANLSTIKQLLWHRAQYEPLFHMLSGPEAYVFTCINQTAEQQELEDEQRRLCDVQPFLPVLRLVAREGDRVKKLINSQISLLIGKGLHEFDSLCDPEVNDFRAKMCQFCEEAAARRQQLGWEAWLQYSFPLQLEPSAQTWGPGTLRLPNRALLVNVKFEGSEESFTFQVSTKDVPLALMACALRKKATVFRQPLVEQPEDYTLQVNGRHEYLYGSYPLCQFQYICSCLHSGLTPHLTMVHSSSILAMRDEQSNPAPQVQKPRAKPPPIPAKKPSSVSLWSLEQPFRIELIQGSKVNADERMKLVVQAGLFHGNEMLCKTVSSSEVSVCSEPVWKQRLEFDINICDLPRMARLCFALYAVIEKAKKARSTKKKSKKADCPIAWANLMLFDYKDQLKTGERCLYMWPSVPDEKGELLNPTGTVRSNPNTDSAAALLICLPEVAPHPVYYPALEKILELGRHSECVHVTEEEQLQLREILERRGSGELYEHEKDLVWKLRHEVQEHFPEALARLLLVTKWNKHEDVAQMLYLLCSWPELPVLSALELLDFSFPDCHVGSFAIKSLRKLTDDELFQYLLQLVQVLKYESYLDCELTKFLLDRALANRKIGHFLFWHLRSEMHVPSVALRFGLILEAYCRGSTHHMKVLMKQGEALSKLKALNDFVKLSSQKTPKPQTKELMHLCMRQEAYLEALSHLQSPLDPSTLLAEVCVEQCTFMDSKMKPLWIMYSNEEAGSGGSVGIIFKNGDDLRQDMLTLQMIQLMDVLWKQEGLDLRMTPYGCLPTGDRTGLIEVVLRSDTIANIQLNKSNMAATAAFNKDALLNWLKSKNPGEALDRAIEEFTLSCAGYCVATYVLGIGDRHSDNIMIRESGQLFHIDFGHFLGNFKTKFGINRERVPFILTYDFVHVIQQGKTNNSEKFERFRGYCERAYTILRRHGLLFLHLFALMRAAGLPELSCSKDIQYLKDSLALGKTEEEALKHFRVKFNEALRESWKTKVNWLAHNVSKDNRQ

SMILES | pIC50
CN(C)C1CCN(Cc2nc3c(N4CCOCC4)nc(-c4cccc5[nH]ccc45)nc3[nH]2)CC1 | > 6.30
CCn1c(CN2CCC(N3CCS(=O)(=O)CC3)CC2)nc2c(N3CCOCC3)nc(-c3c(F)ccc4[nH]ccc34)nc21 | > 6.30
CCn1c(CN2CC(=O)NC(C)(C)C2)nc2c(N3CCOCC3)nc(-c3c(F)ccc4[nH]ccc34)nc21 | > 6.30
CCn1c(CN2CCN(CC(N)=O)C(C)(C)C2)nc2c(N3CCOCC3)nc(-c3c(F)ccc4[nH]ccc34)nc21 | > 6.30
CCn1c(CN2CCC(N3CCOCC3=O)CC2)nc2c(N3CCOCC3)nc(-c3c(F)ccc4[nH]ccc34)nc21 | > 6.30
CCn1c(CN2CCC(N3CC(F)(F)C3)CC2)nc2c(N3CCOCC3)nc(-c3c(F)ccc4[nH]ccc34)nc21 | > 6.30
CCn1c(CN2CC3COCC(C2)N3)nc2c(N3CCOCC3)nc(-c3c(F)ccc4[nH]ccc34)nc21 | > 6.30
CCn1c(CN2CCN(C(C)(C)C(N)=O)CC2)nc2c(N3CCOCC3)nc(-c3c(F)ccc4[nH]ccc34)nc21 | > 6.30
CCn1c(CN2CCC(N3CC(F)C3)CC2)nc2c(N3CCOCC3)nc(-c3c(F)ccc4[nH]ccc34)nc21 | > 6.30
CCn1c(CN2CCC3(CC2)CNC(=O)CO3)nc2c(N3CCOCC3)nc(-c3c(F)ccc4[nH]ccc34)nc21 | > 6.30
CCn1c(CN2CCC(N3CCOC3=O)CC2)nc2c(N3CCOCC3)nc(-c3c(F)ccc4[nH]ccc34)nc21 | > 6.30
CCn1c(CN2CCN(C(C)C)C(=O)C2)nc2c(N3CCOCC3)nc(-c3c(F)ccc4[nH]ccc34)nc21 | > 6.30
CCn1c(CN2CCC(C(=O)O)CC2)nc2c(N3CCOCC3)nc(-c3c(F)ccc4[nH]ccc34)nc21 | > 6.30

Further lines, results first:

pIC50 | SMILES
> 6.30 | CCn1c(CN2CCN3C(=O)COC[C@H]3C2)nc2c(N3CCOCC3)nc(-c3c(F)ccc4[nH]ccc34)nc21
> 6.30 | CCn1c(CN2CCC3(CC2)CNC(=O)CO3)nc2c(N3CCOCC3)nc(-c3cccc4[nH]ccc34)nc21
> 6.30 | CCn1c(CN2CCC3(CCNC3=O)CC2)nc2c(N3CCOCC3)nc(-c3cccc4[nH]ccc34)nc21
> 6.30 | CCn1c(CN2CCC(N3CC(F)C3)CC2)nc2c(N3CCOCC3)nc(-c3cccc4[nH]ccc34)nc21
> 6.30 | CCn1c(CN2CC(N3CCOCC3)C2)nc2c(N3CCOCC3)nc(-c3c(F)ccc4[nH]ccc34)nc21
> 6.30 | CCn1c(CN2CCN3CCOC[C@H]3C2)nc2c(N3CCOCC3)nc(-c3cccc4[nH]ccc34)nc21
> 6.30 | CCn1c(CN2CCC(N3CCCC3=O)CC2)nc2c(N3CCOCC3)nc(-c3cccc4[nH]ccc34)nc21
> 6.30 | CCn1c(CN2CCN(CC(F)(F)F)CC2)nc2c(N3CCOCC3)nc(-c3cccc4[nH]ccc34)nc21
> 6.30 | CCn1c(CN2CCN(C(C)C)C(=O)C2)nc2c(N3CCOCC3)nc(-c3cccc4[nH]ccc34)nc21
> 6.30 | CCn1c(CN2CCC(C(N)=O)(N3CCOCC3)CC2)nc2c(N3CCOCC3)nc(-c3cccc4[nH]ccc34)nc21
> 6.30 | CCn1c(CN2CCC(N3CCS(=O)(=O)CC3)CC2)nc2c(N3CCOCC3)nc(-c3cccc4[nH]ccc34)nc21
